Tested on: Mus musculus
Assay: Compound was evaluated for […] antagonist activity towards Mouse vas deferens(MVD)
Assay type: functional

**Q.** CN(C(=O)Cc1ccc(Cl)c(Cl)c1)[C@H](CN1CCCC1)c1cccc(N=C=S)c1 was tested. Which IC50 did it give?
**A.** 11.1 nM

From ChEMBL document CHEMBL1127843, “2-(3,4-Dichlorophenyl)-N-methyl-N-[(1S)-1-(3-isothiocyanatophenyl)-2-(1-pyrrolidinyl)ethyl]acetamide: an opioid receptor affinity label that produces selective and long-lasting kappa antagonism in mice” (J Med Chem, 1994)
